The text below walks through data of patent publication US10577363B2, “Substituted piperidine compounds” (EPIZYME, INC., priority 2014, dated 2020).

Test [1] deals with esophageal, liver and breast cancer cell lines. To be noted: several esophageal, dose-dependent; cited from earlier work.
The target in test [2] is T1, SMYD3 (Homo sapiens (Human), UniProt Q9H7B4). Description: SMYD3 biochemical assay (SPA, 3H-SAM methylation of MEKK2 protein substrate). The method, boiled down:
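Methylation of N-terminally GST-tagged MEKK2 by untagged full-length human SMYD3, using 3H-SAM, in pH 8.0 Tris buffer with TCEP, BSG and Tween 20; enzyme and compound sat 30 min at room temperature before substrate addition. Stopped with 100 uM (final) cold SAM; incorporation read by scintillation proximity as dpm/cpm.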

Test [3] concerns the target T1, SMYD3. Description: SMYD3 cell assay (Trimethyl-MEKK2 In-Cell Western in 293T/17 cells). It counts as cell-based. Put shortly:
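In-Cell Western readout: methanol-fixed cells stained for trimethyl-MEKK2 and flag tag, ratio per well normalized to DMSO and background controls.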

Setting [4] is: IC50 values are an average of n = 1 to n = 50, read-out: SMYD3 Biochem IC50*.
The mark [5] stands for this setting: IC50 values are an average of n = 1 to n = 50, read-out: SMYD3 Cell IC50*.

T1 sequence (Q9H7B4 whole entry): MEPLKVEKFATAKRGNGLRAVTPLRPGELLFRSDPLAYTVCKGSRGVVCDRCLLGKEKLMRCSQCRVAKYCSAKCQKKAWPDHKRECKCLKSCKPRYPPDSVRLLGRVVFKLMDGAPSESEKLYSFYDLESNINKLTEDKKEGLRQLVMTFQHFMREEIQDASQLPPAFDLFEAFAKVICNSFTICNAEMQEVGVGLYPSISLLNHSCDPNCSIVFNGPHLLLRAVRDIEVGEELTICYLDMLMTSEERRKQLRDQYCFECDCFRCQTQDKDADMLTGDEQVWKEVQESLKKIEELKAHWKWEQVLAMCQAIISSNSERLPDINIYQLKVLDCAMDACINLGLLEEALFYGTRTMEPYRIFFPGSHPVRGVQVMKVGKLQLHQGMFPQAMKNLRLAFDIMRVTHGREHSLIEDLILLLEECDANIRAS

Take `Cc1cn(CCN2CCN(c3ccccc3-c3cc(C#N)cc(C(=O)NCCCN4CCCC4)c3)CC2)c2ccccc12` [LLY-507]: the “inhibition of proliferation of cancer cell lines” value in test [1] is given as “inhibited the proliferation”.

`CC(C)(NC1CCN(S(=O)(=O)N2[C@@H]3CC[C@H]2C[C@@H](NC(=O)c2cc(C4CC4)on2)C3)CC1)c1ccccc1` [compound 978, 5-cyclopropyl-N-((1R,3r,5S)-8-((4-((2-phenylpropan-2-yl)amino)piperidin-1-yl)sulfonyl)-8-azabicyclo[3.2.1]octan-3-yl)isoxazole-3-carboxamide]: the IC50 in test [2] (setting [4]) amounted to 117 nM; in test [3] (setting [5]) it was 1330 nM. For `CN1CCC[C@H]1CS(=O)(=O)N1[C@@H]2CC[C@H]1C[C@@H](NC(=O)c1cc(C3CC3)on1)C2` [compound 979, 5-cyclopropyl-N-((1R,3S,5S)-8-((((S)-1-methylpyrrolidin-2-yl)methyl)sulfonyl)-8-azabicyclo[3.2.1]octan-3-yl)isoxazole-3-carboxamide] the same measures were 119 nM and 436 nM. For `C[C@H]1C[C@@H](NC(=O)c2cc(C3CC3)on2)CCN1S(=O)(=O)N1CCN(C)C[C@@H]1C` [compound 980, 5-cyclopropyl-N-((2S,4S)-1-(((S)-2,4-dimethylpiperazin-1-yl)sulfonyl)-2-methylpiperidin-4-yl)isoxazole-3-carboxamide] the same measures were 120 nM and 697 nM. In the same order, the values of `O=C(N[C@H]1C[C@H]2CC[C@@H](C1)N2S(=O)(=O)[C@@H]1CCCN(CCO)C1)c1cc(C2CC2)on1` [compound 981, 5-cyclopropyl-N-((1R,3R,5S)-8-(((R)-1-(2-hydroxyethyl)piperidin-3-yl)sulfonyl)-8-azabicyclo[3.2.1]octan-3-yl)isoxazole-3-carboxamide] are 127 nM and 466 nM.

Turning to `CN1CCCC1CS(=O)(=O)N1[C@@H]2CC[C@H]1C[C@@H](NC(=O)c1cc(C3CC3)on1)C2` (stereo partly drawn) [compound 982, 5-cyclopropyl-N-((1R,3r,5S)-8-(((1-methylpyrrolidin-2-yl)methyl)sulfonyl)-8-azabicyclo[3.2.1]octan-3-yl)isoxazole-3-carboxamide], the concentration for half-maximal inhibition (IC50) in test [2] (setting [4]) was 134 nM; in test [3] (setting [5]), 819 nM. For `CC[C@H]1CNCCN1S(=O)(=O)N1CC[C@H](NC(=O)c2cc(C3CC3)on2)C[C@@H]1C` [compound 983, 5-cyclopropyl-N-((2S,4S)-1-(((S)-2-ethylpiperazin-1-yl)sulfonyl)-2-methylpiperidin-4-yl)isoxazole-3-carboxamide] the same measures were 142 nM and 931 nM. For `C[C@H]1C[C@@H](NC(=O)c2cc(C3CC3)on2)CCN1S(=O)(=O)N1CCNC[C@@H]1c1ccccc1` [compound 984, 5-cyclopropyl-N-((2S,4S)-2-methyl-1-(((S)-2-phenylpiperazin-1-yl)sulfonyl)piperidin-4-yl)isoxazole-3-carboxamide], the figures for the IC50 in test [2] (setting [4]) and in test [3] (setting [5]) were 142 nM and 1850 nM, respectively.

Regarding `O=C(N[C@H]1C[C@H]2CC[C@@H](C1)N2S(=O)(=O)[C@H]1CCCN(CCO)C1)c1cc(C2CC2)on1` [compound 985, 5-cyclopropyl-N-((1R,3S,5S)-8-(((S)-1-(2-hydroxyethyl)piperidin-3-yl)sulfonyl)-8-azabicyclo[3.2.1]octan-3-yl)isoxazole-3-carboxamide], the IC50 in test [2] (setting [4]) worked out at 155 nM; in test [3] (setting [5]), 708 nM. For `COCCNCc1ccc(S(=O)(=O)N2[C@@H]3CC[C@H]2C[C@@H](NC(=O)c2cc(C4CC4)on2)C3)cc1` [compound 986, 5-cyclopropyl-N-((1R,3r,5S)-8-((4-(((2-methoxyethyl)amino)methyl)phenyl)sulfonyl)-8-azabicyclo[3.2.1]octan-3-yl)isoxazole-3-carboxamide] the same measures were 156 nM and 807 nM. For the molecule `CCc1cc(C(=O)N[C@@H]2CCN(S(=O)(=O)c3ccc(C(C)(C)N)cc3)[C@@H](C)C2)no1` [compound 987, N-((2S,4R)-1-((4-(2-aminopropan-2-yl)phenyl)sulfonyl)-2-methylpiperidin-4-yl)-5-ethylisoxazole-3-carboxamide], the concentration for half-maximal inhibition (IC50) in test [2] (setting [4]) was determined as 158 nM; in test [3] (setting [5]), 776 nM.

Turning to `CN(C)C(C)(C)c1ccc(S(=O)(=O)N2[C@@H]3CC[C@H]2C[C@@H](NC(=O)c2cc(C4CC4)on2)C3)cc1` [compound 988, 5-cyclopropyl-N-((1R,3r,5S)-8-((4-(2-(dimethylamino)propan-2-yl)phenyl)sulfonyl)-8-azabicyclo[3.2.1]octan-3-yl)isoxazole-3-carboxamide], the IC50 worked out at 158 nM in test [2] (setting [4]) and 1670 nM in test [3] (setting [5]). In the same order, the values of `C[C@H]1C[C@@H](NC(=O)c2cc(C3CC3)on2)CCN1S(=O)(=O)CC1CCCCN1` (stereo partly drawn) [compound 989, 5-cyclopropyl-N-((2S,4S)-2-methyl-1-((piperidin-2-ylmethyl)sulfonyl)piperidin-4-yl)isoxazole-3-carboxamide] are 175 nM and 1160 nM. For `O=C(N[C@H]1C[C@H]2CC[C@@H](C1)N2S(=O)(=O)N1CC2CCC(C1)N2CCC(F)(F)F)c1cc(C2CC2)on1` [compound 990, 5-cyclopropyl-N-((1R,3r,5S)-8-((8-(3,3,3-trifluoropropyl)-3,8-diazabicyclo[3.2.1]octan-3-yl)sulfonyl)-8-azabicyclo[3.2.1]octan-3-yl)isoxazole-3-carboxamide] the same measures were 184 nM and 935 nM. As to `CCC[C@H]1C[C@@H](NC(=O)c2cc(C3CC3)on2)CCN1S(=O)(=O)CC1CCN(C)CC1` [compound 991, 5-cyclopropyl-N-((2S,4S)-1-(((1-methylpiperidin-4-yl)methyl)sulfonyl)-2-propylpiperidin-4-yl)isoxazole-3-carboxamide], the figures for the half-maximal inhibitory concentration (IC50) in test [2] (setting [4]) and in test [3] (setting [5]) were 187 nM and 2190 nM, respectively. For `C[C@H]1CN(S(=O)(=O)N2CC[C@H](NC(=O)c3cc(C4CC4)on3)C[C@@H]2C)[C@@H](C)CN1` [compound 992, 5-cyclopropyl-N-((2S,4S)-1-(((2S,5S)-2,5-dimethylpiperazin-1-yl)sulfonyl)-2-methylpiperidin-4-yl)isoxazole-3-carboxamide] the same measures were 188 nM and 1120 nM. For the molecule `CC(C)Cc1cc(C(=O)N[C@H]2C[C@H]3CC[C@@H](C2)N3S(=O)(=O)CC2CCN(C)CC2)no1` [compound 993, 5-isobutyl-N-((1R,3r,5S)-8-(((1-methylpiperidin-4-yl)methyl)sulfonyl)-8-azabicyclo[3.2.1]octan-3-yl)isoxazole-3-carboxamide], the 50% inhibitory concentration (IC50) is 206 nM in test [2] (setting [4]) and 2770 nM in test [3] (setting [5]). On to “N-((2S,4S)-1-(3,8-diaza-bicyclo[3.2.1]octan-8-ylsulfonyl)-2-methylpiperidin-4-yl)-5-cyclopropylisoxazole-3-carboxamide [Cpd. No. 555]”, for which the 50% inhibitory concentration (IC50) in test [2] (Table 2A, read-out: SMYD3 Biochem IC50) is 3.7 nM; in test [3] (Table 2A, read-out: SMYD3 Cell IC50), 23.9 nM.
